We go through ten compounds from PubChem BioAssay AID222 (DTP/NCI, 2004).

Where “and” joins values, the source holds several entries; their conditions need not be identical. Equal entries are not always repeated. Inconclusive results and toxic doses are left out.

The test system of this assay is C57BL/6 mice, intracerebral ependymoblastoma, median survival T/C. In words: NCI In Vivo Anticancer Drug Screen. Data for tumor model Ependymoblastoma (intracerebral) in C57BL/6 mice. Particulars: endpoint: median survival time, higher = longer survival. As for the experimental part: The antitumor activity of compounds was measured in mice bearing transplantable tumors. Survival or tumor size were measured and the results are expressed as the measurement made in the treated group (T) divided by the measurement made in the vehicle treated control group (C). The tumor model used in this assay is Ependymoblastoma (intracerebral) in C57BL/6 mice

The mark [1] stands for this setting: dose: 128.0 mg/kg/injection, schedule: Q01DX005 (ip), vehicle: saline with Tween-80.
[2] abbreviates: dose: 64.0 mg/kg/injection, schedule: Q01DX005 (ip), vehicle: saline with Tween-80.
Where [3] appears, read: dose: 256.0 mg/kg/injection, schedule: Q01DX005 (ip), vehicle: saline with Tween-80.

Consider `N[C@H](C(=O)O)[C@@H]1CC(Cl)=NO1`, for which the T/C runs as follows: (dose: 1.0 mg/kg/injection, schedule: Q01DX005 (ip), vehicle: saline with Tween-80) 93 % of control; (dose: 2.0 mg/kg/injection, schedule: Q01DX005 (ip), vehicle: saline with Tween-80) 94 % of control; (dose: 4.0 mg/kg/injection, schedule: Q01DX005 (ip), vehicle: saline with Tween-80) 113 % of control; (dose: 8.0 mg/kg/injection, schedule: Q01DX005 (ip), vehicle: saline with Tween-80) 108 % of control; (dose: 8.0 mg/kg/injection, schedule: Q12HX002 (ip), vehicle: saline) 118 % of control; (dose: 16.0 mg/kg/injection, schedule: Q01DX001 (ip), vehicle: saline) 100 % of control and 114 % of control. Also, the T/C (dose: 16.0 mg/kg/injection, schedule: Q12HX002 (ip), vehicle: saline) is 97 % of control; the T/C (dose: 32.0 mg/kg/injection, schedule: Q01DX001 (ip), vehicle: saline) was 101 % of control; the T/C (dose: 32.0 mg/kg/injection, schedule: Q12HX002 (ip), vehicle: saline) is 113 % of control; the T/C (dose: 64.0 mg/kg/injection, schedule: Q01DX001 (ip), vehicle: saline) was 103 % of control and 113 % of control; the T/C (dose: 64.0 mg/kg/injection, schedule: Q01DX001 (oral), vehicle: saline) was 93 % of control and 105 % of control; the T/C (dose: 64.0 mg/kg/injection, schedule: Q12HX002 (ip), vehicle: saline) was 116 % of control. Further, the T/C (dose: 128.0 mg/kg/injection, schedule: Q01DX001 (ip), vehicle: saline) was 106 % of control and 108 % of control; the T/C (dose: 128.0 mg/kg/injection, schedule: Q01DX001 (oral), vehicle: saline) is 98 % of control and 106 % of control; the T/C (dose: 128.0 mg/kg/injection, schedule: Q12HX002 (ip), vehicle: saline) was 108 % of control; the T/C (dose: 256.0 mg/kg/injection, schedule: Q01DX001 (ip), vehicle: saline) was 106 % of control and 108 % of control; the T/C (dose: 256.0 mg/kg/injection, schedule: Q01DX001 (oral), vehicle: saline) was 102 % of control and 117 % of control; the T/C (dose: 512.0 mg/kg/injection, schedule: Q01DX001 (oral), vehicle: saline) is 106 % of control and 121 % of control. For the same compound, the T/C (dose: 1024.0 mg/kg/injection, schedule: Q01DX001 (oral), vehicle: saline) is 110 % of control and 115 % of control.

Take `O=P1(NCCCl)OCCCN1CCCl` (stereo not drawn): the T/C reads like this: (dose: 6.25 mg/kg/injection, schedule: Q01DX005 (ip), vehicle: saline) 122 % of control; (dose: 12.5 mg/kg/injection, schedule: Q01DX005 (ip), vehicle: saline) 110 % of control; (dose: 25.0 mg/kg/injection, schedule: Q01DX005 (ip), vehicle: saline) 114 % of control; (dose: 25.0 mg/kg/injection, schedule: Q01DX005 (ip), vehicle: water) 92 % of control and 117 % of control; (dose: 50.0 mg/kg/injection, schedule: Q01DX001 (ip), vehicle: water) 96 % of control; (dose: 50.0 mg/kg/injection, schedule: Q01DX005 (ip), vehicle: water) 90 % of control. In addition, the T/C runs as follows: (dose: 100.0 mg/kg/injection, schedule: Q01DX001 (ip), vehicle: water) 106 % of control; (dose: 100.0 mg/kg/injection, schedule: Q01DX005 (ip), vehicle: water) 106 % of control and 123 % of control; (dose: 200.0 mg/kg/injection, schedule: Q01DX001 (ip), vehicle: water) 119 % of control; (dose: 200.0 mg/kg/injection, schedule: Q01DX005 (ip), vehicle: water) 116 % of control.

Take `Nc1ncnc2c1ncn2C1OC(COP(=O)(O)O)C(O)C1O` (stereo not drawn): the T/C (dose: 100.0 mg/kg/injection, schedule: Q01DX005 (ip), vehicle: saline) was 104 % of control; the T/C (dose: 200.0 mg/kg/injection, schedule: Q01DX005 (ip), vehicle: saline) is 100 % of control; the T/C (dose: 800.0 mg/kg/injection, schedule: Q01DX005 (ip), vehicle: saline) was 119 % of control.

Regarding `O=c1ccc2ccccc2o1`, the T/C was 101 % of control (dose: 90.0 mg/kg/injection, schedule: Q01DX005 (ip), vehicle: saline with Tween-80); 86 % of control (dose: 180.0 mg/kg/injection, schedule: Q01DX005 (ip), vehicle: saline with Tween-80); 97 % of control (dose: 720.0 mg/kg/injection, schedule: Q01DX005 (ip), vehicle: saline with Tween-80).

Regarding `Nc1ncnc2nc[nH]c12`, the T/C under setting [1] was 92 % of control.

In the case of `O=C(N/N=C\c1cc(Br)cc(Br)c1O)N/N=C/c1cc(Br)cc(Br)c1O`, the T/C (dose: 32.0 mg/kg/injection, schedule: Q01DX005 (ip), vehicle: saline with Tween-80) was 88 % of control; the T/C under setting [2] was 97 % of control; the T/C under setting [1] is 88 % of control; the T/C under setting [3] is 93 % of control.

For the compound `O=NN(CCF)C(=O)NC1CCCCC1`, the T/C is 123 % of control (dose: 10.0 mg/kg/injection, schedule: Q01DX005 (ip), vehicle: suspension in saline) and 262 % of control (dose: 20.0 mg/kg/injection, schedule: Q01DX005 (ip), vehicle: suspension in saline).

As to `Nc1ccnc(=O)[nH]1`, the T/C runs as follows: under setting [2], 95 % of control; under setting [1], 90 % of control; under setting [3], 104 % of control; (dose: 512.0 mg/kg/injection, schedule: Q01DX005 (ip), vehicle: saline with Tween-80) 87 % of control; (dose: 1024.0 mg/kg/injection, schedule: Q01DX005 (ip), vehicle: saline with Tween-80) 107 % of control.

As for `COC(=O)[C@@]12OC[C@]34[C@H]([C@@H](O)[C@@H]1O)[C@@]1(C)CC(=O)C(O)=C(C)[C@@H]1C[C@H]3OC(=O)[C@H](OC(=O)/C=C(\C)C(C)C)[C@@H]24`, the T/C runs as follows: (dose: 0.03 mg/kg/injection, schedule: Q01DX005 (ip), vehicle: Klucel (hydroxypropylcellulose) (HPC)) 92 % of control and 110 % of control; (dose: 0.06 mg/kg/injection, schedule: Q01DX005 (ip), vehicle: Klucel (hydroxypropylcellulose) (HPC)) 109 % of control and 116 % of control; (dose: 0.12 mg/kg/injection, schedule: Q01DX005 (ip), vehicle: Klucel (hydroxypropylcellulose) (HPC)) 101 % of control and 107 % of control; (dose: 0.25 mg/kg/injection, schedule: Q01DX005 (ip), vehicle: Klucel (hydroxypropylcellulose) (HPC)) 104 % of control and 109 % of control; (dose: 0.5 mg/kg/injection, schedule: Q01DX005 (ip), vehicle: Klucel (hydroxypropylcellulose) (HPC)) 93 % of control and 117 % of control; (dose: 1.0 mg/kg/injection, schedule: Q01DX005 (ip), vehicle: Klucel (hydroxypropylcellulose) (HPC)) 95 % of control. Also, the T/C reads like this: (dose: 31.2 micrograms/kg/injection, schedule: Q01DX005 (ip), vehicle: saline + alcohol) 86 % of control; (dose: 62.5 micrograms/kg/injection, schedule: Q01DX005 (ip), vehicle: saline + alcohol) 99 % of control; (dose: 125.0 micrograms/kg/injection, schedule: Q01DX005 (ip), vehicle: saline + alcohol) 94 % of control; (dose: 250.0 micrograms/kg/injection, schedule: Q01DX005 (ip), vehicle: saline + alcohol) 108 % of control; (dose: 500.0 micrograms/kg/injection, schedule: Q01DX005 (ip), vehicle: saline + alcohol) 87 % of control; (dose: 1000.0 micrograms/kg/injection, schedule: Q01DX005 (ip), vehicle: saline + alcohol) 99 % of control.

Consider `CO[C@H]1C[C@@H]2CC[C@@H](C)[C@@](O)(O2)C(=O)C(=O)N2CCCC[C@H]2C(=O)O[C@H]([C@H](C)C[C@@H]2CC[C@@H](O)[C@H](OC)C2)CC(=O)[C@H](C)C=C(C)[C@@H](O)[C@@H](OC)C(=O)[C@H](C)C[C@H](C)/C=C/C=C/C=C1C`, for which the T/C by setting is: (dose: 3.12 mg/kg/injection, schedule: Q01DX009 (ip), vehicle: saline with Tween-80) 111 % of control; (dose: 6.25 mg/kg/injection, schedule: Q01DX009 (ip), vehicle: saline with Tween-80) 120 % of control; (dose: 100.0 mg/kg/injection, schedule: Q01DX009 (ip), vehicle: saline with Tween-80) 157 % of control; (dose: 200.0 mg/kg/injection, schedule: Q01DX009 (ip), vehicle: saline with Tween-80) 92 % of control.
